# Where two headings read alike, the source gives them in different places.
# Columns and labels:
# RET-CCDC6 (PTC1) = molecular target: T1, RET-CCDC6 (PTC1) (Homo sapiens, UniProt P07949); assay: Kinase panel inhibition, radiolabeled [γ-33P] ATP (Reaction Biology Corp); type: biochemical; conditions: for remaining activity at 1 µM: compound at 1 uM, ATP 10 µM, read-out: % Enzyme Activity (relative to DMSO controls) RET-CCDC6 (PTC1); for remaining activity at 10 µM: compound at 10 uM, ATP 1 µM
# T1 construct: purchased Reaction Biology Corp
# T1 sequence (P07949 whole entry, looked up): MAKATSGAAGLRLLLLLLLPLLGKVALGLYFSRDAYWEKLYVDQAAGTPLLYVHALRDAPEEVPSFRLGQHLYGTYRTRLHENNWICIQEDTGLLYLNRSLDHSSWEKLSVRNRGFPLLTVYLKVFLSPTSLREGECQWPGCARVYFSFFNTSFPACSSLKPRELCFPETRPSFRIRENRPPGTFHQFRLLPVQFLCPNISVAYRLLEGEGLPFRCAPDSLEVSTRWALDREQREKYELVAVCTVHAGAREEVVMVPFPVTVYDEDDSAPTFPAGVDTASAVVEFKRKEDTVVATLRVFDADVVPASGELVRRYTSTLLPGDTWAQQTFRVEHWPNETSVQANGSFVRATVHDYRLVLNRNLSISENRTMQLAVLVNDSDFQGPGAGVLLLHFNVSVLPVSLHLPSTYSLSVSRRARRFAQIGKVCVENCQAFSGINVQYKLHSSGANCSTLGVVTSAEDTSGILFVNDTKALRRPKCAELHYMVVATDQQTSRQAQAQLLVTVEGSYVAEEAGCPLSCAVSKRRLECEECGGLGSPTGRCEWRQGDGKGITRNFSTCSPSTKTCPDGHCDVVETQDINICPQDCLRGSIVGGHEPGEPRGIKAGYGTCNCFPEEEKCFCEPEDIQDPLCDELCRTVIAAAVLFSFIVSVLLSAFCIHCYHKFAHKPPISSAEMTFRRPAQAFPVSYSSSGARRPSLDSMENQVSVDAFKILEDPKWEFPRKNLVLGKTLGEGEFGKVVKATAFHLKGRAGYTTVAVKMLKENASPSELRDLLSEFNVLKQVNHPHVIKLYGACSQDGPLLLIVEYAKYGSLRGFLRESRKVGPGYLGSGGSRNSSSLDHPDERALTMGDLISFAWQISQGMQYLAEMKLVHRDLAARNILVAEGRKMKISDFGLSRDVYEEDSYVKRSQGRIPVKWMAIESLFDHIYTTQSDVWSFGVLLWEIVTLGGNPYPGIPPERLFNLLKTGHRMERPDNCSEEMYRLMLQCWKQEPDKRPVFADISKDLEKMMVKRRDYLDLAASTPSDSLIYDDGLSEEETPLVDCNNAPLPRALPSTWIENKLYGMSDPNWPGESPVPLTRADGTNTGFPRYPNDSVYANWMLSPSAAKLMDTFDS
# A-549 = assay: Cell proliferation inhibition, Cell Counting Kit-8, non-small cell lung cancer cell line; type: cell-based; conditions: A-549 cell line; 72 hours incubation; test concentration not given
# BaF3 KIF5B-RET (G810R) = assay: Cell proliferation inhibition, Cell Counting Kit-8, Ba/F3 cell line; type: cell-based, rodent; conditions: Mus musculus, 72 hours incubation, read-out: Cell Viability of BaF3 Cell lines (IC50 in uM) KIF5B-RET (G810R)
# BaF3 KIF5B-RET (V804M) = assay: as above; type: cell-based, rodent; conditions: Mus musculus, 72 hours incubation, read-out: Cell Viability of BaF3 Cell lines (IC50 in uM) KIF5B-RET (V804M)
# Description: (§1) To evaluate the inhibitory activity of the compounds represented by Formula I or Formula IV according to the present invention against RET mutation-driven cell growth in the Ba/F3 cell line and against cell growth in the non-small cell lung cancer cell line A-549, the following experiment was performed.
# (§2) Each cell line was seeded in a 96-well plate at 1×10^4 cells/90 µL/well, and 10 µL/well of culture medium containing each example and intermediate compound or DMSO control at 9 concentrations (1 nM to 100 µM) prepared by 3-fold serial dilutions was added to achieve a final concentration of 0 to 100 µM, followed by incubation for 72 hours in a 37°C, 5% CO2 incubator. After 72 hours of incubation, the compound-treated plates were removed, and Cell Counting Kit-8 solution was added at 10 µL/well and mixed well. The plates were then incubated for 2 hours in a CO2 incubator at 37°C, and the absorbance was measured at 450 nm using a microplate reader.
# The absorbance of the experimental group relative to that of the DMSO control group was converted to % survival, and the IC50 values representing the concentration required to inhibit cell growth by 50% were calculated. As a control compound, selpercatinib, a known RET inhibitor, was treated to calculate the IC50 values.
# BaF3-RET(V804M) = assay: Cell proliferation inhibition (GI50), Cell Counting Kit-8, Ba/F3 cell line; type: cell-based, rodent; conditions: Mus musculus, BaF3; 72 hours incubation; Cell Counting Kit-8; read-out: GI50 of BaF3-RET(V804M)
# Description: as §1, §2
# In addition, the data were expressed as a percentage relative to vehicle-treated cells, and GI50 values were calculated using GraphPad Prism 8.0 (GraphPad Software Inc., San Diego), and the results are shown in Table 8 below. As a control compound, ponatinib, a known RET inhibitor, was treated to calculate the GI50 values.
# RET (G810S/M918T) = molecular target: T2, RET (G810S/M918T) (Homo sapiens, UniProt P07949, G810S/M918T); assay: Kinase panel inhibition, radiolabeled [γ-33P] ATP (Reaction Biology Corp); type: biochemical; conditions: compound at 10 uM, ATP 1 µM
# T2 construct: purchased Reaction Biology Corp
# T2 sequence (P07949 29-1114 G810S/M918T): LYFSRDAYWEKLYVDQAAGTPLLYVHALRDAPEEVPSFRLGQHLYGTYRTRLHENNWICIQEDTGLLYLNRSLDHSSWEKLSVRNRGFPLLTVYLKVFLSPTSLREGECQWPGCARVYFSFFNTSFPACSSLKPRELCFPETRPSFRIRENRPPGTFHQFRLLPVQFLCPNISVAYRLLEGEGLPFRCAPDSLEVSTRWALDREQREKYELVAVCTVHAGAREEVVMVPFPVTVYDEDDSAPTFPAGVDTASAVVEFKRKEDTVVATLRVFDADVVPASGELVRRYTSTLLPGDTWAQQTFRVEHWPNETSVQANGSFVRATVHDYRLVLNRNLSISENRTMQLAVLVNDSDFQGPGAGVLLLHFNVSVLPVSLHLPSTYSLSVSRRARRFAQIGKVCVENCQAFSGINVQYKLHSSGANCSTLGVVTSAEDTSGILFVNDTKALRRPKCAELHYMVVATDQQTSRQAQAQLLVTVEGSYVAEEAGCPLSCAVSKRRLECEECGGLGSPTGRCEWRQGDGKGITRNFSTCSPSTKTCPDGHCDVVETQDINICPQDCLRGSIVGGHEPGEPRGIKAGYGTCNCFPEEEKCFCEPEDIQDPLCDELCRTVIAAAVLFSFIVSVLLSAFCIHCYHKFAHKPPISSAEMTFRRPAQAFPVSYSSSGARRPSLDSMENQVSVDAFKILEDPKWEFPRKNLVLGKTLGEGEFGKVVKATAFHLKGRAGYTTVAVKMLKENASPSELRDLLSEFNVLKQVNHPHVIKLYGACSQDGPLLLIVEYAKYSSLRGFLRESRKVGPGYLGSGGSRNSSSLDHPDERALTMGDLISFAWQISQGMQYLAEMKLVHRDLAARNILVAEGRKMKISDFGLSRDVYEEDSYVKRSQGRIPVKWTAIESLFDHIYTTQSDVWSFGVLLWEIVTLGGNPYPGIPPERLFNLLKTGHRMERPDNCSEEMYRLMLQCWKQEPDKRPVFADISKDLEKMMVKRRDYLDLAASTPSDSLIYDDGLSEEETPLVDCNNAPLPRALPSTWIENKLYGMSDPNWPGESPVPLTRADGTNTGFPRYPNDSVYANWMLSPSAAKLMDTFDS
# RET-NCOA4 (PTC3) = molecular target: T3, RET-NCOA4 (PTC3) (Homo sapiens, UniProt P07949); assay: as above; type: biochemical; conditions: compound at 1 uM; ATP 10 µM; read-out: % Enzyme Activity (relative to DMSO controls) RET-NCOA4 (PTC3)
# T3 construct: purchased Reaction Biology Corp
# T3 sequence (P07949 whole entry, looked up): as the sequence (P07949 whole entry, looked up) above
# KIF5B-RET = molecular target: T4, KIF5B-RET (Homo sapiens, UniProt P07949); assay: as above; type: biochemical; conditions: read-out: Enzymatic inhibitory activity (IC50) nM KIF5B-RET
# T4 sequence (P07949 713-1114): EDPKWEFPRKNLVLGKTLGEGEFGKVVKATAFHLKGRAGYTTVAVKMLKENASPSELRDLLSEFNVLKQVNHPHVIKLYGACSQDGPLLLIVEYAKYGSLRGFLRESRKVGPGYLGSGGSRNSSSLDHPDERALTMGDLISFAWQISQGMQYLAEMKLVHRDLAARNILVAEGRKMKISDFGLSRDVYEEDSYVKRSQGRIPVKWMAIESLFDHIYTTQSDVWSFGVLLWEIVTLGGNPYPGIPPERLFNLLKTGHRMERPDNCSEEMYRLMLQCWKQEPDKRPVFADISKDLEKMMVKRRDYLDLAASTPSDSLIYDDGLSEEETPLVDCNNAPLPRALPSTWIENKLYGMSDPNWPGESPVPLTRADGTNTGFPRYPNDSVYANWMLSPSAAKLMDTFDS
# T4 sequence (P33176 2-575 partner): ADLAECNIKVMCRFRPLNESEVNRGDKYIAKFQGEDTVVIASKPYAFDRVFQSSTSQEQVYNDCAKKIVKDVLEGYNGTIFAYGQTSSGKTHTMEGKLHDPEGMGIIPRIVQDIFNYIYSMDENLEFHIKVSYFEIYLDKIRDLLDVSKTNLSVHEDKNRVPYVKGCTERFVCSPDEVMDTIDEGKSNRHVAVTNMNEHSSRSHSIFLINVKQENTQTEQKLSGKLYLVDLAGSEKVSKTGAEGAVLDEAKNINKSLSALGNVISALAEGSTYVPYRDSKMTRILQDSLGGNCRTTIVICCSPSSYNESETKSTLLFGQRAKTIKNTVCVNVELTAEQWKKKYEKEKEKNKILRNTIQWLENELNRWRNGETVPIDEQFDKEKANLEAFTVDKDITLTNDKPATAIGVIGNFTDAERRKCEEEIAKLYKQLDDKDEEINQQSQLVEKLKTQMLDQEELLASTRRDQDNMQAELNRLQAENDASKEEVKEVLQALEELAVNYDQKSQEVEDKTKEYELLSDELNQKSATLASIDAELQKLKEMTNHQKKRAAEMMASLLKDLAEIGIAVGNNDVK
# Description: The inhibitory activities of the example and intermediate compounds of the present invention against a kinase panel (Reaction Biology Corp) of RET and RET mutations (RET(G810R), RET(V804M), KIF5B-RET, RET(V804M)-KIF5B, RET-CCDC6, RET-NCOA4, and RET(G810S/M918T)) were investigated. Using radiolabeled ATP ([γ-33P] ATP), the degree to which the substrate was replaced by a 33P-phosphorylated substrate was measured, and changes in kinase activity were determined from the measurement of the radiolabeled phosphorylated substrate. The example and intermediate compounds were tested at concentrations of 0.1 µM to 30 µM against ATP concentrations of 1 µM or 10 µM. The residual activity (%) of the example and intermediate compounds after inhibition against each kinase panel is shown in Tables 3 to 5 below. […]
# [1] = Data 1, read-out: % Enzyme Activity (relative to DMSO controls) RET-CCDC6 (PTC1) Data 1
# [2] = Data 2, read-out: % Enzyme Activity (relative to DMSO controls) RET-CCDC6 (PTC1) Data 2
# [3] = Data 1, read-out: % Enzyme Activity (relative to DMSO controls) RET (G810S/M918T) Data 1
# [4] = Data 2, read-out: % Enzyme Activity (relative to DMSO controls) RET (G810S/M918T) Data 2
Structure (SMILES),remaining activity at 1 µM (RET-CCDC6 (PTC1)) [%],remaining activity at 10 µM (RET-CCDC6 (PTC1); [1]) [%],remaining activity at 10 µM (RET-CCDC6 (PTC1); [2]) [%],Cell Proliferation (% of control) (A-549) [%],IC50 (BaF3 KIF5B-RET (G810R)) [µM],IC50 (BaF3 KIF5B-RET (V804M)) [µM],GI50 (BaF3-RET(V804M)) [nM],remaining activity at 10 µM (RET (G810S/M918T); [3]) [%],remaining activity at 10 µM (RET (G810S/M918T); [4]) [%],remaining activity at 1 µM (RET-NCOA4 (PTC3)) [%],IC50 (KIF5B-RET) [nM]
"Nc1cc(-c2ccc(N3CC(Oc4cccc(F)c4)C3)nc2)c2nccnc2c1 [Example 1, 8-(6-(3-(3-fluorophenoxy)azetidin-1-yl)pyridin-3-yl)quinoxalin-6-amine]",0.01,0.75,0.52,34.36,0.88,1.02,1460,0.22,-0.72,1.11,2.2
"CCNc1cc(-c2ccc(N3CC(Oc4cccc(F)c4)C3)nc2)c2nccnc2c1 [Example 3, N-ethyl-8-(6-(3-(3-fluorophenoxy)azetidin-1-yl)pyridin-3-yl)quinoxalin-6-amine]",18.6,0.73,0.91,25.06,1.09,0.12,661,-0.47,-0.51,16.8,< 0.5
